Test results from patent EP4527828A1, “BIPHENYL COMPOUND, PHARMACEUTICAL COMPOSITION, METHOD FOR PREPARING SAME, AND USE THEREOF” (Longivitron (Suzhou) Biotechnology Co., Ltd, priority 2022, dated 2023).
Where two headings read alike, the source gives them in different places.

Legend:
[1] = target: T1, LAG3/MHCII (Homo sapiens, UniProt P18627); test: HTRF binding inhibition of LAG3 and its ligand MHCII; conditions: binding inhibition LAG3/MHCII
T1 sequence (P18627 23-450 limits assumed): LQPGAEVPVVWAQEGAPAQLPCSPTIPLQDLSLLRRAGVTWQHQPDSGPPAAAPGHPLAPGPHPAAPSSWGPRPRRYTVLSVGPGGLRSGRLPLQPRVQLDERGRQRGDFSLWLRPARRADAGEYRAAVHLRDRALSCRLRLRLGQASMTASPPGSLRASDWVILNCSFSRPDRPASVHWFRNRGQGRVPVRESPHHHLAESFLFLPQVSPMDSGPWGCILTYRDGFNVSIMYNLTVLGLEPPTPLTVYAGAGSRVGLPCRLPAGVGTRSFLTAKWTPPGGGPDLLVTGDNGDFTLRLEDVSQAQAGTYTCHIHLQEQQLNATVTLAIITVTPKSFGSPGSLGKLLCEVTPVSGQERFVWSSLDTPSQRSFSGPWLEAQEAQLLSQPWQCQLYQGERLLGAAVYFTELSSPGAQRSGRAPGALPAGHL
Description: HTRF (Homogeneous time-resolved fluorescence) is based on two techniques, fluorescence resonance energy transfer (FRET) and time-resolved fluorescence (TRF). The detection was carried out using a 384-well plate. 2 µL of a compound to be tested with an appropriate concentration was collected, 4 µL of Tag1-LAG3 protein (with a final concentration of 10 nmol·L^-1) was added, 4 µL of Tag2-MHCII (with a final concentration of 20 nmol·L^-1) was added, and the plate was incubated at room temperature for 15 min. 10 µL of Anti-Tag1-Tb working solution (prepared by adding 25 µL of Anti-Tag1-Tab mother solution to 2475 µL of dilution buffer) was added, 10 µL of Anti-Tag2-XL665 working solution (prepared by adding 25 µL of Tag2-XL665 mother solution to 2475 µL of dilution buffer) was added, and the plate was sealed with a film and incubated at room temperature for 1 h. The detection was carried out using a Perkin Elma Envision instrument.

[2] = target: T2, Mouse LAG3 protein (Mus musculus, UniProt Q61790); test: SPR interaction assay, CM5 chip amino coupling, mouse LAG3; format: binding; conditions: for Kd / Rmax / Note / kon / koff: ligand Mouse LAG3 protein; for Note: bound or not bound; for kon: read-out: Ka; for koff: read-out: Kd
T2 sequence (Q61790 24-521): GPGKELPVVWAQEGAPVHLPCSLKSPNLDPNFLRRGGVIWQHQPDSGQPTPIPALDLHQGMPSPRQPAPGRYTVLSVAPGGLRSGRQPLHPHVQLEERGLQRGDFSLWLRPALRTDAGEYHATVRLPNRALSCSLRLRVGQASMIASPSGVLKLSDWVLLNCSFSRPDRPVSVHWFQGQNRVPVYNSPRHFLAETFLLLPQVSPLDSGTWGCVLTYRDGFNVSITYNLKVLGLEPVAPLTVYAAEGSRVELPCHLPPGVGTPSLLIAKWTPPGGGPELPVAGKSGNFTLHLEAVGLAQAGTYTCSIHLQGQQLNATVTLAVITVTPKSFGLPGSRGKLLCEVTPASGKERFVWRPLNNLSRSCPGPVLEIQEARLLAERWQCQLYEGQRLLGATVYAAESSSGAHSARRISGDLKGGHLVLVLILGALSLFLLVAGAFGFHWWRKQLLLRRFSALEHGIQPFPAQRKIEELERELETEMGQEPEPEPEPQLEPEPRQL
Description: (§1) A surface plasmon is an electromagnetic wave on a metal surface and is generated by the interaction of photons and electrons which are freely vibrated. Surface plasmon resonance (SPR) is an optical phenomenon that occurs on the surfaces of two media, and such a phenomenon can be induced by photons or electrons. When light enters an optically thinner medium from an optically denser medium, the phenomenon of total reflection occurs, and an evanescent wave is generated and enters the optically thinner medium. When the totally reflected evanescent wave meets the plasmon wave on the metal surface, resonance may occur, the energy of the reflected light decreases, and a resonance peak occurs on the energy spectrum of the reflected light. Such a resonance is called surface plasmon resonance. The angle of incidence causing the surface plasmon resonance is called an SPR angle. An SPR biosensor provides a sensitive, non-labeled detection technique for monitoring intermolecular interactions in real time. The sensor detects the change in the SPR angle, and the SPR is related to the refractive index of the metal surface. When an analyte binds to the chip surface, the refractive index of the chip surface changes, thus causing the change in the SPR angle. This is the basic principle for the SPR biosensor to detect intermolecular interactions in real time. During the interaction analysis, the change in the SPR angle is recorded on the sensorgram in real time.
Through the information query, the theoretical isoelectric point of the LAG3 protein is about 9.82, and the amino coupling method was contemplated to immobilize the protein. Since the main ligands of the LAG3 protein are FGL1 and MHCII proteins, after the LAG3 protein was coupled, the FGL1 protein sampling method was used to verify the protein activity.
(§2) Protein coupling buffer solution: 1.05× PBS-P+; 1.02× PBS-P+
(§3) Interaction buffer solution: 1.0× PBS-P+, 5% DMSO; 1.0× PBS-P+, 2% DMSO
In this experiment, by using the CM5 chip amino coupling method, the human LAG3 protein was immobilized to the Fc2 or Fc3 channel, and the mouse LAG3 protein was immobilized to the Fc3 or Fc4 channel.
LAG3 protein coupling conditions were as follows: the concentration was about 25 µg/mL, the system was sodium acetate solution with a pH of 5.5, the chip activation time was 420 s, and the blocking time was 420 s.
LAG3 protein coupling conditions were as follows: the concentration was about 50 µg/mL, the system was sodium acetate solution with a pH of 4.5, the chip activation time was 420 s, and the blocking time was 420 s.

[3] = target: T3, Human FGL1 protein (Homo sapiens, UniProt Q08830); test: SPR interaction assay, human FGL1; format: binding; conditions: for Note: bound or not bound; for kon: read-out: Ka; for koff: read-out: Kd
T3 sequence (Q08830 23-312): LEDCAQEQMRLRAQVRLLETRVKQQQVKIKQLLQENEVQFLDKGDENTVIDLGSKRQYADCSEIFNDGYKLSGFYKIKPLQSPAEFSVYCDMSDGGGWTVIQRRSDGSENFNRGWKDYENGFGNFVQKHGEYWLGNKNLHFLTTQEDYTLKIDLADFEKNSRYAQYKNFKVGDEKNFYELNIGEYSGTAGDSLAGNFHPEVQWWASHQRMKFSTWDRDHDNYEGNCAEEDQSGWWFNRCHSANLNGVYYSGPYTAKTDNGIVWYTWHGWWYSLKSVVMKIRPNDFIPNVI
Description: as §1, §2, §3

[4] = SPR, ligand FGL1 protein, read-out: KD
[5] = text summary of Table 4, read-out: affinities with the new ligand FGL1 of LAG3

SMILES | IC50 [1] [µM] | interaction with the mouse LAG3 protein [2] | Kd [2] [µM] | Rmax [2] [RU] | Note [2] | kon [2] [M⁻¹ s⁻¹] | koff [2] [s⁻¹] | interaction with the human FGL1 protein ([3]; SPR) | Rmax ([3]; SPR, ligand FGL1 protein) [RU] | Note ([3]; SPR, ligand FGL1 protein) | Kd [3, 4] [µM] | kon ([3]; SPR, ligand FGL1 protein) [M⁻¹ s⁻¹] | koff ([3]; SPR, ligand FGL1 protein) [s⁻¹] | Kd [3, 5] [µM]
CCCCCCOc1ccc(C(=O)O)cc1-c1cc(C(=O)NCCCCNC(=O)C(F)(F)F)ccc1OCCCCCC [Compound 8] | 8.34 | interacts with the mouse LAG3 protein | 5.42 | 3.955 | Bound | 1870 | 0.0101 | interacts with the human FGL1 protein | 28.91 | Bound | 15.7 | 1470 | 0.0231 | ~10
CCCCCCOc1ccc2cc1-c1cc(ccc1OCCCCCC)C(=O)CCCCCC2=O [Compound 4] | 18 | interacts with the mouse LAG3 protein | 13.2 | 5.214 | Bound | 1060 | 0.014 | interacts with the human FGL1 protein | 14.02 | Bound | 23.2 | 2130 | 0.0504 | ~10
